Here are results for 1 compound from PMC7949139, “The molecular basis of OH-PCB estrogen receptor activation” (The Journal of Biological Chemistry, 2021).

Numbering of substitutions follows the chain as printed.

What all share (format): biochemical
Assay [1] addresses T1, spin-labeled SULT1E1, spin label attached at Cys residue 16 (C69S/G16C) (Homo sapiens, UniProt P49888, C69S/G16C).
T1 construct: E. coli codon-optimized SULT1E1 coding region inserted into the PreScission Protease cleavage site; His/GST/MBP triple tag (N, cleaved yes); made in house; host or cells: E. coli BL21(DE3)
T1 sequence (P49888 1-294 G16C/C69S): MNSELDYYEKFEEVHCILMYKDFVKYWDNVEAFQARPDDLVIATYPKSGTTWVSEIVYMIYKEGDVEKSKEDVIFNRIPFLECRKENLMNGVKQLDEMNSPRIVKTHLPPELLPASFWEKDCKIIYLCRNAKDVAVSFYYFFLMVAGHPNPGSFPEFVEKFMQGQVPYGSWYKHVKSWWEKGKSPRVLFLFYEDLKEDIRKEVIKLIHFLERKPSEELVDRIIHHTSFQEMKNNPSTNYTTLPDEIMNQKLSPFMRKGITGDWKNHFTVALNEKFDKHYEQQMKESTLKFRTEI
In words: Initial-rate studies, spin-labeled construct (label at Cys 16). The conditions noted are these: spin label at Cys 16; parentheses = one SD; read-out: Ki OH-PCB1. The method, then: (§1) Spin labels were attached to the SULT1E1 scaffold at Cys residues that were site-specifically incorporated via PCR-based mutagenesis. Prior to creating spin-label attachment constructs, reactive Cys was removed from the native scaffold. Only one of the four native SULT1E1 Cys (i.e., C69) reacts with DTNB ([39]), and mutagenic conversion of C69 to ser produced a stable, fully active non-DTNB-reactive scaffold. Five individual cys-attachment constructs were prepared from the C69S mutant (G16C, K25C, N150C, Q163C, and N233C). Mutants were labeled (see, Experimental procedures) and the initial rate parameters (kcat, Km and Ki) of each spin-labeled mutant were determined (see, Experimental procedures, Initial-Rate studies) to evaluate whether the catalytic integrity of the constructs had been compromised by the insertions and/or spin label attachments. […]
(§2) Labels (N-cyclohexylmale-imide or 3-maleimido-PROXYL) were added in 20-fold excess over reactive cysteine to a solution containing SULT1E1 construct (50 μM active sites), 0.50 mM PAP, and 50 mM KPO4 (pH 7.4), 25 °C ± 2 deg. […] The reactions were monitored by using DTNB to measure unreacted cysteine and were considered complete when >98% of the cysteine had reacted (∼3 h).
(§3) C. Reaction progress was monitored via the fluorescence change associated with 1-HP sulfonation (λex = 325 nm, λem = 370 nm ([51], [52])). […]

In another assay the target is T2, SULT1E1 F75A (Homo sapiens, UniProt P49888, F75A).
T2 construct: E. coli codon-optimized SULT1E1 coding region inserted into the PreScission Protease cleavage site; His/GST/MBP triple tag (N, cleaved yes); made in house; host or cells: E. coli BL21(DE3)
T2 sequence (P49888 1-294 F75A): T1 sequence (P49888 1-294 G16C/C69S) with C16G, S69C, F75A
In words: Initial-rate studies (1-HP sulfonation; OH-PCB1 inhibition), F75A mutant. The method, then:
(§4) C. Reaction progress was monitored via the fluorescence change associated with 1-HP sulfonation (λex = 325 nm, λem = 370 nm ([51], [52])). Initial rates were measured during conversion to product of ≤5% of the concentration-limiting substrate consumed at the reaction endpoint. Velocities were determined in triplicate. Km and kcat were obtained by (1/v^4)-weighted least-squares fitting of the averaged data in double-reciprocal space (i.e., 1/v versus 1/[S]) ([66], [67]).
(§5) Inhibition studies were performed as described above except: 1-HP was fixed (2.0 μM, 100 × Km), OH-PCBs were added (0.20–20 × Ki), and SULT1E1 was 0.20 nM (active sites). Ki was determined by least-squares fitting to a noncompetitive inhibition model ([66], [67]).

In the next assay the target is T3, SULT1E1 F80A (Homo sapiens, UniProt P49888, F80A).
T3 construct: E. coli codon-optimized SULT1E1 coding region inserted into the PreScission Protease cleavage site; His/GST/MBP triple tag (N, cleaved yes); made in house; host or cells: E. coli BL21(DE3)
T3 sequence (P49888 1-294 F80A): T1 sequence (P49888 1-294 G16C/C69S) with C16G, S69C, F80A
In words: Initial-rate studies (1-HP sulfonation; OH-PCB1 inhibition), F80A mutant. The method, then: as §4, §5

In assay [2] the target is T4, spin-labeled SULT1E1, spin label attached at Cys residue 233 (C69S/N233C) (Homo sapiens, UniProt P49888, C69S/N233C).
T4 construct: E. coli codon-optimized SULT1E1 coding region inserted into the PreScission Protease cleavage site; His/GST/MBP triple tag (N, cleaved yes); made in house; host or cells: E. coli BL21(DE3)
T4 sequence (P49888 1-294 C69S/N233C): T1 sequence (P49888 1-294 G16C/C69S) with C16G, N233C
In words: Initial-rate studies, spin-labeled construct (label at Cys 233). As to conditions: spin label at Cys 233; parentheses = one SD; read-out: Ki OH-PCB1. The method, then:
as §1, §2, §3

Assay [3] addresses T5, spin-labeled SULT1E1, spin label attached at Cys residue 150 (C69S/N150C) (Homo sapiens, UniProt P49888, C69S/N150C).
T5 construct: E. coli codon-optimized SULT1E1 coding region inserted into the PreScission Protease cleavage site; His/GST/MBP triple tag (N, cleaved yes); made in house; host or cells: E. coli BL21(DE3)
T5 sequence (P49888 1-294 C69S/N150C): T1 sequence (P49888 1-294 G16C/C69S) with C16G, N150C
In words: Initial-rate studies, spin-labeled construct (label at Cys 150). The conditions noted are these: spin label at Cys 150; parentheses = one SD; read-out: Ki OH-PCB1. The protocol:
as §1, §2, §3

[4] abbreviates: noncompetitive inhibition model, parentheses = one SD.

For the compound `Oc1ccc(-c2c(Cl)cccc2Cl)cc1` [OH-PCB1, 4ʹ-OH-2,6-dichlorobiphenol], the inhibition constant Ki in assay [1] was found to be 63 nM; at SULT1E1 F75A (setting [4]), 630 nM; on SULT1E1 F80A (setting [4]), 730 nM; in assay [2], 58 nM; in assay [3], 65 nM. In addition, the “Fold Effect = Ki OH-PCB1/Ki OH-PCB1 WT” value came to 11 on SULT1E1 F75A and 12 at SULT1E1 F80A.
